Experiment: Accelerated heat-treatment test for browning (Experiment 4)
Assay type: physicochemical
Conditions: 150 mg heated at 80° C. for three days, dissolved in 3 ml water, absorbance at 400 nm
Source text: Accordingly, in this experiment, Test samples 1 and 12 to 16, which had been used in the antecedent Experiments, were examined for the relationship between the coloration and the total content of L-ascorbic acid plus D-glucose, the content of L-ascorbic acid, or the reducing power of the whole particulate composition by conducting an accelerated test on heat treatment according to the following procedures:
One hundred and fifty milligrams of each of the test samples was weighed and placed in a 10-ml test tube with a screw cap, and the test tubes in a closed condition of their opening parts with the screw caps were placed in “DRYING-OVEN SA310”, a product name of an oven commercialized by Masuda Corp., Osaka, Japan, and heated at 80° C. for three days. […] The resulting solutions were measured for absorbance at a wavelength of 400 nm using “UV-2400PC”, a product name of a spectrophotometer commercialized by Shimadzu Corp., Kyoto, Japan. The degree of coloration caused by heating was judged based on the following two criteria: When the absorbance at a wavelength of 400 nm is less than 0.50, it is judged as “Not browned or substantially not browned” (−); and when the absorbance at a wavelength of 400 nm is 0.50 or higher, it is judged as “Browned” (+).

Question: With `O=C1O[C@H]([C@@H](O)CO)C(O)=C1O[C@H]1O[C@H](CO)[C@@H](O)[C@H](O)[C@H]1O` [Test sample 16, 2-O-α-D-glucosyl-L-ascorbic acid] as the molecule, how does the Browning property read?
Answer: + (when the absorbance at a wavelength of 400 nm is 0.50 or higher, it is judged as “Browned” (+))
